Experimental data taken from US11021444B2, “Antiviral compounds” (priority 2013, dated 2021).
Where two headings read alike, the source gives them in different places.

How the values were obtained:
[1] = system: RSV replicon; test: microbe, parasite or virus in culture; format: cell-based; conditions: human respiratory syncytial virus, read-out: EC50, the concentration of the drug required for reducing RSV replicon RNA by 50%
[2] = biological target: recombinant RSV complex (Human respiratory syncytial virus A, UniProt P28887); test: RSV Polymerase Inhibition Assay; format: biochemical
recombinant RSV complex, sequence (P28887 whole entry): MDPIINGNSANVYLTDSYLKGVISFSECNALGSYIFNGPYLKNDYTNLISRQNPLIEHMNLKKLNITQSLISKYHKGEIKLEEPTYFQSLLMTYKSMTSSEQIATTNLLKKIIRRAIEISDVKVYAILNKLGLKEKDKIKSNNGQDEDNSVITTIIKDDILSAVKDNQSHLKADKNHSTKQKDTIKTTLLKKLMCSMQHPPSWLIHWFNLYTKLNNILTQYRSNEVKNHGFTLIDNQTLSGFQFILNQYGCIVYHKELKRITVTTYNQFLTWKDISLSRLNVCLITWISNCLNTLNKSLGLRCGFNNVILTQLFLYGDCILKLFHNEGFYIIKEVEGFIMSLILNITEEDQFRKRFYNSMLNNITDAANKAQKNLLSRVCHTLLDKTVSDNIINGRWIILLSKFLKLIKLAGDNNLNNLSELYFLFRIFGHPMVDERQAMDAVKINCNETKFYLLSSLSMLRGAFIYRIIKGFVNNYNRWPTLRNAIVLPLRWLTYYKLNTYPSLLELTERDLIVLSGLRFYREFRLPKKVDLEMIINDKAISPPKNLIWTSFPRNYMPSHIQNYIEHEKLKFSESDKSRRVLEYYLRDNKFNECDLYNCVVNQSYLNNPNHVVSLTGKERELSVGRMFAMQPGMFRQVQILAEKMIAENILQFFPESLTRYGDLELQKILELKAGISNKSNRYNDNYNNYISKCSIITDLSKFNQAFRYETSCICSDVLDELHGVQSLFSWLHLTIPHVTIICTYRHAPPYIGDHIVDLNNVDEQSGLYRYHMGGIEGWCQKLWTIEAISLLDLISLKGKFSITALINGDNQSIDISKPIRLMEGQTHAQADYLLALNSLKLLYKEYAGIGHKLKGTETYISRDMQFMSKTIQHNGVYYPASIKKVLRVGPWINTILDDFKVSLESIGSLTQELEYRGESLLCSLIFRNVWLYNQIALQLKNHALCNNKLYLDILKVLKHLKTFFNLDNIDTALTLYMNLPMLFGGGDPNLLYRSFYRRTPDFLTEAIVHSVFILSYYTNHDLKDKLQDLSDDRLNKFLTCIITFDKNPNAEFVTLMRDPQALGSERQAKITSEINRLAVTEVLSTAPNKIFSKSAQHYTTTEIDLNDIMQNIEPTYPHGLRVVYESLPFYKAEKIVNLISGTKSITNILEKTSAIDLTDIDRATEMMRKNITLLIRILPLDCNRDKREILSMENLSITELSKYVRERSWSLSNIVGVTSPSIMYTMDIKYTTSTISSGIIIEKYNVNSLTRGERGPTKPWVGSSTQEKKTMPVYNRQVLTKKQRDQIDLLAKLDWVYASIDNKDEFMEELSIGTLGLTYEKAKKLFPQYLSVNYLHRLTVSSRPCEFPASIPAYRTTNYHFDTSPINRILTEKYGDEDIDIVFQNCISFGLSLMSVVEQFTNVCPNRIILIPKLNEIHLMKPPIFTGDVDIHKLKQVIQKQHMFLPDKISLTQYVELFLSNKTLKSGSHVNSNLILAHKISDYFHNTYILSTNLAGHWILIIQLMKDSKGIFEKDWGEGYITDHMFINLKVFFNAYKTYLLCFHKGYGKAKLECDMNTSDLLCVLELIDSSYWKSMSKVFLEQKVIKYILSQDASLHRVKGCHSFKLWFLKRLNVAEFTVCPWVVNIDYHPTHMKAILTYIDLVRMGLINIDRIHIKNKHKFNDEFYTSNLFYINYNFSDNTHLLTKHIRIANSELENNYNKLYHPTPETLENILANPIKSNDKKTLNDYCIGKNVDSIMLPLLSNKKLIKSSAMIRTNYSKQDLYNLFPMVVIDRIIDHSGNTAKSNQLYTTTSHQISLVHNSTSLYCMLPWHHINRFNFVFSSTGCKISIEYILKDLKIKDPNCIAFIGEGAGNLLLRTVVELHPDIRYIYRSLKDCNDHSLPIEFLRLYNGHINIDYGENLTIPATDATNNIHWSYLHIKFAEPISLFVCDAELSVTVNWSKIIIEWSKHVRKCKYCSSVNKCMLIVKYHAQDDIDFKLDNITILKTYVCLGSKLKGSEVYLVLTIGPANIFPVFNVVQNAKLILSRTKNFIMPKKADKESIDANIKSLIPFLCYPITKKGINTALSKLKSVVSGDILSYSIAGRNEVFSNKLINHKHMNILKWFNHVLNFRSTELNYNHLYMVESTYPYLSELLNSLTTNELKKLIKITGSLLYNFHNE
recombinant RSV complex, sequence (P03421 whole entry, further chain): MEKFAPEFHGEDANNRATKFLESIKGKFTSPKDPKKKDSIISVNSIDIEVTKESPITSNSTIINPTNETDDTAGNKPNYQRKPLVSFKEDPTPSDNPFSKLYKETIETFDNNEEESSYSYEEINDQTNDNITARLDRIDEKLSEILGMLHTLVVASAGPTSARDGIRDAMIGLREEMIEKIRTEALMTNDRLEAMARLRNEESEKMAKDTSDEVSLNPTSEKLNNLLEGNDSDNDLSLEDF
Method in brief: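 Inhibition measured as reduced incorporation of radiolabel into RNA products, detected by scintillation counting. Reactions: recombinant RSV complex (10 nM), RNA oligonucleotides, Tris-HCl pH 7.5, 6 mM MgCl2, inhibitor titration, 2 h at 30 °C, EDTA stop.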

[3] = Cytotoxicity Determination (CCK-8, without addition of virus); format: cell-based; conditions: human, 50% cytotoxicity concentration (CC50)
Method in brief: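 Cytotoxicity was measured by CCK-8 after 3-4 hours at 37 °C, following 5 days of uninfected exposure at 37 °C and 5% CO2. Compounds ran as duplicate 7-point 1/2 dilutions starting at 100 μM, with 1% final DMSO. HEp-2 cells had been plated at 1,500/well the day before.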

[4] = system: Respiratory Syncytial Virus (RSV) long strain; test: microbe, parasite or virus in culture; format: cell-based; conditions: human respiratory syncytial virus, Tables A and B list compounds by EC50 band
Method in brief: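 CPE-reduction format: viability measured colorimetrically with CCK-8 (450 nm, 630 nm reference) after 3-4 h, following 5-day infection at 37 °C, 5% CO2. Cells were HEp-2; inoculum 100 TCID50/well; duplicate 9-point 1/3 series starting at 100 μM or 1 μM.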

[5] = HEp-2, 120 h, read-out: 50% effective concentration (EC50), HEp-2 cells infected with RSV long strain, 5 days, CCK-8 readout
[6] = 120 h, read-out: 50% effective concentration (EC50), HEp-2 cells infected with RSV long strain, 5 days, CCK-8 readout

Compound: COc1cc(C(=O)NCC(O)(c2cc(C(C)(C)N)cc(-c3ccc(F)cc3)n2)C(F)(F)F)ccc1O[C@H]1CCNC1=O (stereo partly drawn) [Compound 319]
- EC50 [1]: < 1 µM
- IC50 [2]: < 1 µM

Compound: COc1cc(C(=O)NCC(O)(c2ccc(OC)c(-c3ccc(F)cc3)n2)C(F)(F)F)ccc1OCC(F)F (stereo not drawn) [Compound 341]
- EC50 [1]: < 1 µM
- IC50 ([2]; read-out: IC50 (compound concentration at which the enzyme-catalyzed rate was reduced by 50%), 10 nM recombinant RSV complex, 2 h at 30° C., Tables E, F and G list compounds by IC50 band): < 1 µM

Compound: COc1cc(C(=O)NCC(O)(c2cc(C(C)(C)N)cc(-c3ccc(Cl)nc3)n2)C(F)(F)F)ccc1OC1CC1 (stereo not drawn) [Compound 567]
- EC50 [1]: < 1 µM
- IC50 [2]: < 1 µM

Compound: COc1cc(C(=O)NCC(C)(O)c2cc(C(C)(C)N)cc(-c3ccc(F)cc3)n2)ccc1OCC(N)=O (stereo not drawn) [Compound 602]
- EC50 [1]: < 1 µM
- IC50 [2]: < 1 µM

Compound: COc1ccc(C(=O)NCC(O)(c2cc(C(C)(C)N)cc(-c3ccc(F)c(Cl)c3)n2)C(F)(F)F)cc1OC (stereo not drawn) [Compound 316]
- EC50 [1]: < 1 µM
- IC50 [2]: < 1 µM

Compound: COc1cc(C(=O)NCC(O)(c2cc(C(C)(C)NC(C)=O)cc(-c3ccc(F)c(Cl)c3)n2)C(F)(F)F)ccc1OC[C@@H](C)O (stereo partly drawn) [Compound 601]
- EC50 [1]: < 1 µM
- IC50 [2]: < 1 µM

Compound: COc1cc(C(=O)NCC(O)(c2ccc(OC)c(-c3ccc(F)c(Cl)c3)n2)C2CC2)ccc1OC(F)F (stereo not drawn) [Compound 432]
- CC50 at 5 days [3]: 10 to 100 µM
- EC50 [4, 5]: 1 to 50 µM
- IC50 [2]: < 1 µM

Compound: COc1cc(C(=O)NCC(C)(O)c2cc3cc[nH]c3c(-c3ccc(F)c(Cl)c3)n2)ccc1OCCF (stereo not drawn) [Compound 290]
- CC50 at 5 days [3]: 10 to 100 µM
- EC50 [4, 6]: 1 to 50 µM
- IC50 [2]: < 10 µM

Compound: COc1cc(C(=O)NCC(O)(CN2CCOCC2)c2ccc(OC)c(-c3ccc(F)c(Cl)c3)n2)ccc1OCCO (stereo not drawn) [Compound 181]
- CC50 at 5 days [3]: > 100 µM
- EC50 [4, 5]: < 1 µM
- IC50 [2]: < 1 µM

Compound: COc1cc(C(=O)NCC(O)(c2ccc(OC)c(-c3ccc(F)c(Cl)c3)n2)C(F)(F)F)ccc1OCC1(O)CC1 (stereo not drawn) [Compound 270]
- CC50 at 5 days [3]: 10 to 100 µM
- EC50 [4, 6]: < 1 µM
- IC50 [2]: < 1 µM

Compound: COc1cc(C(=O)NCC(O)(c2ccc(OC)c(-c3ccc(F)c(Cl)c3)n2)C(F)(F)F)ccc1OCC(F)(F)F (stereo not drawn) [Compound 233]
- CC50 at 5 days [3]: > 100 µM
- EC50 [4, 5]: 1 to 50 µM
- IC50 [2]: < 1 µM

Compound: COc1cc(C(=O)NCC(O)(c2cc3c(c(-c4ccc(Cl)c(Cl)c4)n2)OCC3(C)N)C(F)(F)F)ccc1OCCO (stereo not drawn) [Compound 662]
- CC50 at 5 days [3]: 10 to 100 µM
- EC50 [4, 5]: < 1 µM
- IC50 [2]: < 1 µM

Compound: COc1cc(C(=O)NCC(O)(c2cc3c(c(-c4ccc(F)c(C(C)F)c4)n2)OCCC3(C)C)C2CC2)ccc1OCCO (stereo not drawn) [Compound 299]
- CC50 at 5 days [3]: 10 to 100 µM
- EC50 [4, 5]: < 1 µM
- IC50 [2]: < 1 µM

Compound: COc1cc(C(=O)NCC(O)(c2cc3c(c(-c4ccc(F)c(Cl)c4)n2)OCC3(C)C)C(F)(F)F)cc2ccc(C#N)nc12 (stereo not drawn) [Compound 215]
- CC50 at 5 days [3]: 10 to 100 µM
- EC50 [4, 5]: 1 to 50 µM
- IC50 [2]: < 1 µM

Compound: COc1cc(C(=O)NCC(C)(CO)c2ccc(OC)c(-c3ccc(F)c(Cl)c3)n2)ccc1OCCO (stereo not drawn) [Compound 471]
- CC50 at 5 days [3]: 10 to 100 µM
- EC50 [4, 5]: 1 to 50 µM
- IC50 [2]: < 10 µM

Compound: CC(C)(N)c1cc(-c2ccc(F)cc2)nc(C(O)(CNC(=O)c2ccc3c(c2)CNC(=O)N3)C(F)(F)F)c1 (stereo not drawn) [Compound 639]
- CC50 at 5 days [3]: 10 to 100 µM
- EC50 [4, 5]: 1 to 50 µM
- IC50 [2]: < 1 µM

Compound: COc1ccc(C(C)(O)CNC(=O)c2ccc(-c3nc(C)no3)cc2)nc1-c1ccc(F)c(Cl)c1 (stereo not drawn) [Compound 175]
- CC50 at 5 days [3]: > 100 µM
- EC50 [4, 5]: 1 to 50 µM
- IC50 [2]: < 10 µM

Compound: COc1cc(C(=O)NCC(N)(CF)c2ccc(OC)c(-c3ccc(F)c(Cl)c3)n2)ccc1OC1CC1 (stereo not drawn) [Compound 518]
- CC50 at 5 days [3]: 10 to 100 µM
- EC50 [4, 5]: < 1 µM
- IC50 [2]: < 1 µM

Compound: COc1cc(C(=O)NCC(O)(c2ccc(OC)c(-c3ccc(F)c(Cl)c3)n2)C(F)(F)F)ccc1OCC(N)=O (single isomer, unassigned) [Compound 238]
- CC50 at 5 days [3]: 10 to 100 µM
- EC50 [4, 5]: < 1 µM
- IC50 [2]: < 1 µM

Compound: COc1ccc(C(O)(CNC(=O)c2ccc3ncoc3c2)C(F)(F)F)nc1-c1ccc(F)c(Cl)c1 (stereo not drawn) [Compound 266]
- CC50 at 5 days [3]: 10 to 100 µM
- EC50 [4, 5]: 1 to 50 µM
- IC50 [2]: < 1 µM

Compound: CC(C)(N)c1cc(-c2ccc(F)c(Cl)c2)nc(C(O)(CNC(=O)c2cncs2)C(F)(F)F)c1 (stereo not drawn) [Compound 278]
- CC50 at 5 days [3]: 10 to 100 µM
- EC50 [4, 5]: 1 to 50 µM
- IC50 [2]: < 1 µM

Compound: CNCC(O)(CNC(=O)c1ccc(OCCO)c(OC)c1)c1ccc(OC)c(-c2ccc(F)c(Cl)c2)n1 (stereo not drawn) [Compound 177]
- CC50 at 5 days [3]: > 100 µM
- EC50 [4, 5]: 1 to 50 µM
- IC50 [2]: < 10 µM

Compound: COc1cc(C(=O)NCC(O)(CN(C)C)c2ccc(OC)c(-c3ccc(F)c(Cl)c3)n2)ccc1OCCO (stereo not drawn) [Compound 178]
- CC50 at 5 days [3]: > 100 µM
- EC50 [4, 5]: 1 to 50 µM
- IC50 [2]: < 100 µM

Compound: COc1cc(C(=O)NCC(O)(c2cc3c(c(-c4ccc(Cl)c(F)c4)n2)OCC3(C)N)C(F)(F)F)ccc1CO[C@@H](C)O (stereo partly drawn) [Compound 666]
- CC50 at 5 days [3]: 10 to 100 µM
- EC50 [4, 5]: < 1 µM
- IC50 [2]: < 1 µM

Compound: Cc1nc(C(=O)NCC(O)(c2cc(C(C)(C)N)cc(-c3ccc(F)cc3)n2)C(F)(F)F)co1 (stereo not drawn) [Compound 607]
- CC50 at 5 days [3]: 10 to 100 µM
- EC50 [4, 5]: 1 to 50 µM
- IC50 [2]: < 10 µM

Compound: CNc1ccc(C(O)(CNC(=O)c2ccc(OC3CC3)c(OC)c2)C(F)(F)F)nc1-c1ccc(F)c(Cl)c1 (stereo not drawn) [Compound 451]
- CC50 at 5 days [3]: > 100 µM
- EC50 [4, 5]: < 1 µM
- IC50 [2]: < 1 µM

Compound: CC(C)(N)c1cc(-c2ccc(F)c(Cl)c2)nc(C(O)(CNC(=O)c2cn3cccnc3n2)C(F)(F)F)c1 (stereo not drawn) [Compound 477]
- CC50 at 5 days [3]: 10 to 100 µM
- EC50 [4, 5]: 1 to 50 µM
- IC50 [2]: < 10 µM

Compound: Cc1nc(C(=O)NCC(O)(c2cc(C(C)(C)N)cc(-c3ccc(F)c(Cl)c3)n2)C(F)(F)F)cs1 (stereo not drawn) [Compound 279]
- CC50 at 5 days [3]: 10 to 100 µM
- EC50 [4, 5]: 1 to 50 µM
- IC50 [2]: < 1 µM

Compound: COCc1ccc(C(=O)NCC(C)(O)c2ccc(OC)c(-c3ccc(F)c(Cl)c3)n2)cc1OC (stereo not drawn) [Compound 114]
- CC50 at 5 days [3]: 10 to 100 µM
- EC50 [4, 5]: 1 to 50 µM
- IC50 [2]: < 10 µM

Compound: COc1ccc(C(O)(CNC(=O)c2ccc3ncsc3c2)C(F)(F)F)nc1-c1ccc(F)c(Cl)c1 (stereo not drawn) [Compound 254]
- CC50 at 5 days [3]: 10 to 100 µM
- EC50 [4, 5]: 1 to 50 µM
- IC50 [2]: < 1 µM

Compound: COc1cc(C(=O)NCC(C)(O)c2cc3c(c(-c4ccc(F)c(Cl)c4)n2)NCC3)ccc1OCCF (stereo not drawn) [Compound 286]
- CC50 at 5 days [3]: 10 to 100 µM
- EC50 [4, 5]: 1 to 50 µM
- IC50 [2]: < 10 µM

Compound: COc1cc(C(=O)NCC(O)(c2ccc(OC)c(-c3ccc(F)c(Cl)c3)n2)C2CC2)ccc1CCCO (stereo not drawn) [Compound 426]
- CC50 at 5 days [3]: 10 to 100 µM
- EC50 [4, 5]: < 1 µM
- IC50 [2]: < 10 µM

Compound: COc1ccc(C(=O)NCC(C)(O)c2ccc(OC)c(-c3ccc(F)c(Cl)c3)n2)cc1 (stereo not drawn) [Compound 174]
- CC50 at 5 days [3]: 10 to 100 µM
- EC50 [4, 5]: 1 to 50 µM
- IC50 [2]: < 10 µM

Compound: COc1ccc(C(O)(CNC(=O)c2ccc3[nH]c(=O)n(C)c3c2)C(F)(F)F)nc1-c1ccc(F)c(Cl)c1 (stereo not drawn) [Compound 267]
- CC50 at 5 days [3]: 10 to 100 µM
- EC50 [4, 5]: < 1 µM
- IC50 [2]: < 1 µM

Compound: CCc1cc(-c2ccc(F)cc2)nc(C(C)(O)CNC(=O)c2ccc(OCCO)c(OC)c2)c1 (stereo not drawn) [Compound 353]
- CC50 at 5 days [3]: > 100 µM
- EC50 [4, 5]: < 1 µM
- IC50 [2]: < 1 µM

Compound: COc1cc(C(=O)NCC(O)(c2ccc(OC)c(-c3ccc(F)c(Cl)c3)n2)C(F)(F)F)ccc1OCC(C)(F)F (stereo not drawn) [Compound 234]
- CC50 at 5 days [3]: > 100 µM
- EC50 [4, 5]: < 1 µM
- IC50 [2]: < 1 µM

Compound: COc1cc(C(=O)NCC(O)(c2cc3c(c(-c4ccc(F)c(Cl)c4)n2)OCC3(C)C)C(F)(F)F)cc2ccc(C)nc12 (stereo not drawn) [Compound 213]
- CC50 at 5 days [3]: > 100 µM
- EC50 [4, 5]: < 1 µM
- IC50 [2]: < 1 µM
